pIC50: −log10 of the molar value.

The target of the experiment is thioredoxin-1 (Trx) (Homo sapiens, UniProt P10599). Kind of experiment: insulin reduction assay with pure human Trx preincubated with PMX464. The format is biochemical.
Chain of thioredoxin-1 (Trx) (P10599 2-105): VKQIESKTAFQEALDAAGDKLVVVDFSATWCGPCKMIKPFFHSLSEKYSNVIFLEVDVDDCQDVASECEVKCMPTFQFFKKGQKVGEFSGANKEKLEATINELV

A word on the pIC50: it is the IC50 on a negative log10 scale, so that one unit is a factor of ten. Read a low pIC50 as a large IC50. In turn, `O=C1C=CC(O)(c2nc3ccccc3s2)C=C1` [PMX464, 4-(benzothiazol-2-yl)-4-hydroxycyclohexa-2,5-dien-1-one hydrate] showed a pIC50 of 4.70.
